The series in a line: passive permeability, PAMPA, ADME assay (AID 1508612). Particulars: pH 7.4, 30.0 min, 50.0 µM. Background: In PAMPA a lipid-coated filter parts donor from acceptor wells.

Experimental findings from PubChem BioAssay AID1508612 are described below.

For orientation: Papp means the rate of passage across a membrane or cell layer, normalised by area and donor concentration.

In turn, `C[C@@H]1CN(CC(=O)N2CC(C)(C)c3ncc(Cc4ccc(F)cc4)cc32)[C@@H](CN2CCOC[C@H]2C)CN1` displayed a Papp of over 1000 ×10⁻⁶ cm/s.
The result for `O=C(Nc1ccc([S+](=O)([O-])Nc2nccs2)cc1)c1ccn[nH]1` reads under 1 ×10⁻⁶ cm/s; that for `C#CCNC(=O)c1nc(-c2ccc([S+](C)(=O)[O-])cc2)c2cnccn12`, under 1 ×10⁻⁶ cm/s.
The result for `CCc1oc2ccccc2c1C(=O)c1cc(Br)c(O)c(Br)c1` reads 62 ×10⁻⁶ cm/s.
The result for `COc1ccc(NC(=O)C2=C(C)NC(Nc3nc4ccccc4o3)=NC2c2ccccc2Br)cc1` (configuration not stated) reads 371 ×10⁻⁶ cm/s.
In turn, `Cc1ccc(NC(=O)c2cc(-c3ccc[nH]3)n[nH]2)cc1F` had a Papp of 157 ×10⁻⁶ cm/s.
With `COc1cccc(C(=O)Nc2nc(-c3nnn(-c4cccc(Cl)c4C)c3C)ns2)c1` the figure was 321 ×10⁻⁶ cm/s.
In the case of `C[C@H]1CCC[C@H](O)CCC/C=C/c2cc(O)cc(O)c2C(=O)O1`, the apparent permeability coefficient (Papp) stood at 864 ×10⁻⁶ cm/s.
The result for `Cc1ccc(S(=O)(=O)Nc2cnccc2C(=O)Nc2ccc(-c3nc4ccccc4[nH]3)cc2)cc1` reads 2.2 ×10⁻⁶ cm/s.
The result for `COc1cccc(CNc2ccc(S(=O)(=O)Nc3ccccn3)cc2)c1O` reads 586 ×10⁻⁶ cm/s; that for `Cc1ccc(-c2cc(C(=O)Nc3ccc(S(=O)(=O)N(C)C)cc3)c3ccccc3n2)cc1C`, 23 ×10⁻⁶ cm/s; that for `COc1cccc(CNc2ccc(S(=O)(=O)Nc3nc4ccccc4o3)cc2)c1O`, 106 ×10⁻⁶ cm/s.
For `Oc1ccc(CNc2ccccc2F)c2cccnc12`, the apparent permeability (Papp) was 34 ×10⁻⁶ cm/s.
With `O=C(N/N=C/c1ccc(Sc2ccccn2)o1)c1ccncc1` the figure was 76.8 ×10⁻⁶ cm/s; with `COc1ccc(-c2noc([C@@H]3Cc4nc[nH]c4CN3C(=O)NC3CCCCC3)n2)cc1`, 517 ×10⁻⁶ cm/s.
With `COc1ccc(C(=O)N2CCCC(c3nn(-c4ccc(OC)cc4)c(=O)[nH]3)C2)cc1` (configuration not stated) the figure was 599 ×10⁻⁶ cm/s; with `Cc1ccc(S(=O)(=O)Nc2cnccc2C(=O)Nc2nc(-c3ccccc3Cl)cs2)cc1`, 46 ×10⁻⁶ cm/s; with `CCOc1ccc(NC(=O)c2ccc(F)c(S(=O)(=O)N(CC)Cc3ccccc3)c2)cc1`, under 1 ×10⁻⁶ cm/s.
The result for `O=C1Nc2ccccc2C12CC2c1cc(Cl)c(O)c(Cl)c1` (configuration not stated) reads 278 ×10⁻⁶ cm/s; that for `COc1ccc(OC)c(-c2nnc3ccc(-c4ccc(OC)c(O[C@@H]5CCOC5)c4)nn23)c1`, 877 ×10⁻⁶ cm/s; that for `Cc1ccc(S(=O)(=O)Nc2cnccc2C(=O)Nc2nc(-c3ccc(-c4ccccc4)cc3)cs2)cc1`, 5.92 ×10⁻⁶ cm/s.
`CCn1nnnc1Sc1ncnc2scc(-c3ccc(C)cc3)c12` showed a Papp of over 1000 ×10⁻⁶ cm/s.
`Cc1cc(C)nc(NC(=S)N2CCN(c3ccc(F)cc3F)CC2)c1`: the apparent permeability coefficient (Papp) is over 1000 ×10⁻⁶ cm/s.
The result for `CCN(CC)[S+](=O)([O-])c1cc(NC(=O)c2[nH]c(C)c(C(C)=O)c2C)ccc1OC` reads 645 ×10⁻⁶ cm/s; that for `Clc1cccc(-c2ccc(-c3nnc(CCCc4ccc5cccnc5n4)o3)cc2)c1`, over 1000 ×10⁻⁶ cm/s; that for `Nc1nc(N)c2cc(Sc3ccc4ccccc4c3)ccc2n1`, 461 ×10⁻⁶ cm/s.
The result for `Cc1ccc(S(=O)(=O)Nc2cnccc2C(=O)Nc2nc(-c3ccccc3F)cs2)cc1` reads 51.2 ×10⁻⁶ cm/s; that for `O=C(NCc1ccc(N2CCCC2)nc1)c1cc(Cl)ccc1O`, over 1000 ×10⁻⁶ cm/s.
With `CC(C)n1cc(-c2ccc(Oc3ccccc3)cc2)c2c(N)ncnc21` the figure was over 1000 ×10⁻⁶ cm/s; with `O=C(Nc1cccc(OC(F)(F)F)c1)c1cc(-c2ccc[nH]2)n[nH]1`, 26.6 ×10⁻⁶ cm/s; with `COc1ccc(C(=O)NC2CCCc3c2[nH]c2ccccc32)cc1OC` (configuration not stated), 38.1 ×10⁻⁶ cm/s.
`CCNC(=O)N1CCCN(c2ccc(C(=O)NCCc3ccc(Cl)cc3Cl)cc2NC(=O)c2cccc(Cl)c2)CC1`: the apparent permeability (Papp) was determined as 202 ×10⁻⁶ cm/s.
The result for `Cc1cc(C)nc(NC(=S)N2CCN(c3cccc(C(F)(F)F)n3)CC2)c1` reads 589 ×10⁻⁶ cm/s.
The result for `N#Cc1nc(-c2cccc3ccccc23)oc1NCc1ccccc1` reads 22.9 ×10⁻⁶ cm/s; that for `CC(=O)Nc1ccc(S(=O)(=O)Nc2nccs2)cc1`, under 1 ×10⁻⁶ cm/s.
With `NC(=O)C1CCN(c2ncc(-c3ccc4c(c3)OCO4)s2)CC1` the figure was 692 ×10⁻⁶ cm/s; with `O=c1cc(N2CCOCC2)oc2c1ccc1ccccc12`, 294 ×10⁻⁶ cm/s; with `Cc1ccc(-n2nc3c(=O)n(CCCC(=O)NCc4ccccc4F)nc(C)c3c2C)cc1`, 920 ×10⁻⁶ cm/s.
Consider `Cc1csc2nc(-c3cccc(NC(=O)c4ccccc4Cl)c3)cn12`, for which the Papp turned out to be 651 ×10⁻⁶ cm/s.
`CNc1oc(-c2cccc(Cl)c2Cl)nc1C#N` displayed an apparent permeability coefficient (Papp) of 505 ×10⁻⁶ cm/s.
The result for `Cc1ccc(Nc2nc(-c3ccncc3)nc3ccccc23)cc1F` reads 15.5 ×10⁻⁶ cm/s.
Take `COc1c(O)ccc2c1CN1CCc3cc4c(cc3[C@@H]1C2)OCO4`: the apparent permeability coefficient (Papp) was over 1000 ×10⁻⁶ cm/s.
The result for `COc1ccc(S(=O)(=O)N2CCN(C(=O)C3COc4ccccc4O3)CC2)cc1` (configuration not stated) reads over 1000 ×10⁻⁶ cm/s; that for `COc1ccc(CNc2ccc(S(=O)(=O)Nc3nccs3)cc2)c(O)c1`, under 1 ×10⁻⁶ cm/s.
Compound `O=C(Nc1nc(-c2ccccc2)cs1)c1ccncc1NS(=O)(=O)c1ccc(N2CCCC2=O)cc1` registered a Papp of 314 ×10⁻⁶ cm/s.
With `CCOc1ccc(CCNC(=O)c2cc3cnccc3n2Cc2cccc(C)c2)cc1OCC` the figure was 184 ×10⁻⁶ cm/s; with `O=C1c2ccccc2C2=Nc3ccccc3SC(c3ccccc3F)C12` (configuration not stated), under 1 ×10⁻⁶ cm/s.
Consider `COc1ccc(NC(=O)c2ccc[nH]2)cc1S(=O)(=O)Nc1ccc(Br)cc1`, for which the apparent permeability coefficient (Papp) was over 1000 ×10⁻⁶ cm/s.
With `N=c1c2c(ccn1CCc1ccccc1)Oc1ccc3ccccc3c1C2c1ccccc1` (configuration not stated) the figure was 553 ×10⁻⁶ cm/s; with `O=C(Nc1ncnc2sc3c(c12)CCCCC3)c1ccco1`, over 1000 ×10⁻⁶ cm/s.
With `CC(=O)Nc1cccc(-c2nc(-c3c(C)noc3C)cc3c2cc(-c2ccccc2)n3C)c1` the figure was 455 ×10⁻⁶ cm/s; with `COCCNC(=O)[C@H]1C[C@H](Oc2ccccc2)CN1Cc1ccc2[nH]ccc2c1`, 961 ×10⁻⁶ cm/s; with `CC(C)(N)C(=O)N[C@H](COCc1ccccc1)C(=O)N1CCC2(CC1)CN(S(C)(=O)=O)c1ccccc12`, 819 ×10⁻⁶ cm/s.
The result for `Cc1ccc(S(=O)(=O)Nc2cnccc2C(=O)Nc2nc(-c3ccc(Cl)cc3)cs2)cc1` reads 38.2 ×10⁻⁶ cm/s; that for `CCN(c1ccccc1)S(=O)(=O)c1c(C)nc2scc(C)n2c1=O`, 615 ×10⁻⁶ cm/s; that for `O=C(Cc1ccc(Cl)c(Cl)c1)Nc1ccc(S(=O)(=O)Nc2cncnc2)cc1`, 1.5 ×10⁻⁶ cm/s.
In the case of `COc1cc(-c2cn(C)c(=O)c3cnccc23)c(OC)cc1CN(C)C`, the apparent permeability coefficient (Papp) amounted to 28.9 ×10⁻⁶ cm/s.
Turning to `NC(=O)C1CCN(c2nc(-c3ccccc3F)cs2)CC1`, the apparent permeability (Papp) came out at 558 ×10⁻⁶ cm/s.
With `CCN(C(=O)C(NS(=O)(=O)c1ccc(Br)s1)c1ccccc1)c1ccc(C)c(C)c1` (configuration not stated) the figure was 392 ×10⁻⁶ cm/s.
Regarding `O=C(O)CCNc1cc(N2CCc3ccccc3CC2)nc(-c2cccnc2)n1`, the apparent permeability (Papp) is 56.4 ×10⁻⁶ cm/s.
The result for `O=C1CCCC2=C1C(c1ccccc1Cl)N=C(Nc1nc3ccccc3o1)N2` (configuration not stated) reads over 1000 ×10⁻⁶ cm/s.
With `CC(=O)c1ccc(N2CCN(c3ccc(NC(=O)c4ccc(F)cc4)cc3C(=O)O)CC2)cc1` the figure was 156 ×10⁻⁶ cm/s; with `NC(=O)C1CCN(c2nc(-c3cccc(N)c3)cs2)CC1`, 86.8 ×10⁻⁶ cm/s.
`O=C1CCCC2=C1C(C1CCCCC1Cl)N=C(NC1NC3CCCCC3S1)N2` (configuration not stated) returned a Papp of 161 ×10⁻⁶ cm/s.
With `Cc1ccnc(NC(=S)N2CCN(c3ccc(C(F)(F)F)cc3[N+](=O)[O-])CC2)c1` the figure was over 1000 ×10⁻⁶ cm/s.
The result for `Cn1ncnc1[C@H]1c2n[nH]c(=O)c3cc(F)cc(c23)N[C@@H]1c1ccc(F)cc1` reads 60.5 ×10⁻⁶ cm/s; that for `COc1cccc(C(=O)Nc2ccc([S+](=O)([O-])Nc3nccs3)cc2)c1O`, 3.5 ×10⁻⁶ cm/s.
